The values below come from patent publication US8241659B2, “Nutrition with lipids and non-digestible saccharides” (N. V. Nutricia, priority 2005, dated 2012).

Experiment [1] has as its system Bifidobacteria. Briefly: Growth in the presence of butyrate (data not shown). The experiment is classed as cell-based. The settings on record: 10 mM butyrate.
Experiment [2] relates to lactic acid bacteria. Described as above. The experiment is classed as cell-based. The settings on record: 10 mM butyrate.

Regarding `CCCC(=O)O` [butyrate], the growth inhibition result in experiment [1] and in experiment [2] was “not inhibited” throughout.
